Test: xn = mol fraction of the nth substance listed

C=CC(=O)OCC + CCCCCCCCCCO
viscosity [mPa·s], 101.3 kPa
Settings	x1 = 0.0861	x1 = 0.235	x1 = 0.302	x1 = 0.4261	x1 = 0.5383	x1 = 0.7248	x1 = 0.8036	x1 = 0.8763	x1 = 0.9389	x1 = 0.9688
298.15 K	8.526	5.017	3.969	2.618	1.895	1.076	0.86	0.702	0.602	0.563
308.15 K	6.006	3.812	3.085	2.104	1.515	0.898	0.73	–	0.525	0.497

C=CC(=O)OCC + CCCCCCCCO
viscosity [mPa·s], 101.3 kPa
Settings	x1 = 0.0771	x1 = 0.2017	x1 = 0.2664	x1 = 0.3869	x1 = 0.4933	x1 = 0.6865	x1 = 0.7722	x1 = 0.8504	x1 = 0.9275	x1 = 0.9634
298.15 K	5.444	3.576	2.914	2.043	1.543	0.96	0.785	0.681	0.582	0.546
308.15 K	4.096	2.812	2.301	1.663	1.268	0.825	0.678	0.586	0.507	0.478

C=CC(=O)OCC + CCCCCCCO
viscosity [mPa·s], 101.3 kPa
Settings	x1 = 0.0736	x1 = 0.1906	x1 = 0.2456	x1 = 0.3599	x1 = 0.4687	x1 = 0.6637	x1 = 0.7551	x1 = 0.8399	x1 = 0.9223	x1 = 0.9662
298.15 K	4.585	3.017	2.513	1.864	1.399	0.923	0.778	0.655	0.576	0.534
308.15 K	3.306	2.411	2.01	1.531	1.18	0.778	0.658	0.564	0.505	0.471

COC(C)(C)C + CCCCCCO
viscosity [mPa·s], 101 kPa
Settings	x1 = 0.0204	x1 = 0.0304	x1 = 0.0495
298.15 K	4.315	4.175	3.925
303.15 K	–	–	3.395

COCCOCCOCCOCCOC + CCCCCCO
viscosity [mPa·s], 100 kPa
Settings	x2 = 0.1043	x2 = 0.2031	x2 = 0.3014	x2 = 0.4023	x2 = 0.5043	x2 = 0.6003	x2 = 0.7007	x2 = 0.8057	x2 = 0.8986
293.15 K	3.597	3.447	3.317	3.222	3.167	3.167	3.216	3.482	3.977
298.15 K	3.177	3.048	2.933	2.852	2.8	2.797	2.835	3.049	3.453
303.15 K	2.83	2.716	2.617	2.543	2.494	2.488	2.52	2.688	3.023
308.15 K	2.538	2.438	2.35	2.282	2.237	2.227	2.251	2.387	2.661
313.15 K	2.293	2.204	2.124	2.062	2.019	2.007	2.023	2.131	2.356
318.15 K	2.093	2.012	1.94	1.88	1.845	1.826	1.838	1.926	2.111

Clc1cccc2ccccc12 + CCCCCCO
viscosity [mPa·s], 101.33 kPa
Settings	x1 = 0.1047	x1 = 0.2004	x1 = 0.3023	x1 = 0.3992	x1 = 0.5019	x1 = 0.6012	x1 = 0.6993	x1 = 0.8002	x1 = 0.9013
298.15 K	3.951	3.68	3.366	3.133	2.903	2.781	2.706	2.638	2.647
303.15 K	3.335	3.105	2.858	2.67	2.506	2.455	2.44	2.304	2.337
308.15 K	2.608	2.423	2.248	2.084	1.971	1.951	1.942	1.969	2.066

COC(C)(C)C + CCCCCO
Settings	viscosity [mPa·s]
298.15 K, 101.33 kPa, x1 = 0.0301	3.179
298.15 K, 101.33 kPa, x1 = 0.0484	3.008
298.15 K, 101.33 kPa, x1 = 0.1133	2.461
298.15 K, 101.33 kPa, x1 = 0.1663	2.091
298.15 K, 101.33 kPa, x1 = 0.2824	1.56
298.15 K, 101.33 kPa, x1 = 0.3286	1.346
298.15 K, 101.33 kPa, x1 = 0.3767	1.174
298.15 K, 101.33 kPa, x1 = 0.4229	1.052
298.15 K, 101.33 kPa, x1 = 0.4688	0.939
298.15 K, 101.33 kPa, x1 = 0.5137	0.843
298.15 K, 101.33 kPa, x1 = 0.5239	0.843
298.15 K, 101.33 kPa, x1 = 0.5817	0.725
298.15 K, 101.33 kPa, x1 = 0.6305	0.653
298.15 K, 101.33 kPa, x1 = 0.6824	0.587
298.15 K, 101.33 kPa, x1 = 0.7282	0.538
298.15 K, 101.33 kPa, x1 = 0.7788	0.487
298.15 K, 101.33 kPa, x1 = 0.8339	0.44
298.15 K, 101.33 kPa, x1 = 0.8897	0.398
298.15 K, 101.33 kPa, x2 = 0.0178	0.349
303.15 K, 101 kPa, x1 = 0.0401	2.675

Clc1cccc2ccccc12 + CCCCCO
viscosity [mPa·s], 101.33 kPa
Settings	x1 = 0.1019	x1 = 0.1914	x1 = 0.3014	x1 = 0.371	x1 = 0.4944	x1 = 0.6006	x1 = 0.6961	x1 = 0.7909	x1 = 0.9013
298.15 K	3.204	3.078	2.928	2.833	2.708	2.669	2.659	2.702	2.761
303.15 K	2.83	2.704	2.555	2.473	2.388	2.364	2.358	2.393	2.464
308.15 K	2.469	2.37	2.232	2.179	2.115	2.107	2.107	2.134	2.217

Clc1ccccc1 + CCCCCO
293.15 K, 101.33 kPa
Settings	viscosity [mPa·s]
x2 = 0.0511	0.816
x2 = 0.1017	0.852
x2 = 0.1449	0.892
x2 = 0.198	0.936
x2 = 0.2665	1.017
x2 = 0.3688	1.195
x2 = 0.4687	1.387
x2 = 0.5602	1.637
x2 = 0.5789	1.697
x2 = 0.7339	2.339
x2 = 0.8618	3.062
x2 = 0.9524	3.666

CCc1ccccc1 + CCCCO
298.15 K, 101.33 kPa
Settings	viscosity [mPa·s]
x2 = 0.1608	0.666
x2 = 0.2901	0.735
x2 = 0.4235	0.849
x2 = 0.5335	0.999
x2 = 0.6392	1.183
x2 = 0.7407	1.435
x2 = 0.8339	1.756
x2 = 0.9191	2.126

COC(C)(C)C + CCCCO
viscosity [mPa·s], 101 kPa
Settings	x1 = 0.1006	x1 = 0.102	x1 = 0.2	x1 = 0.2998	x1 = 0.3995	x1 = 0.5111	x1 = 0.6008	x1 = 0.6996	x1 = 0.7994	x1 = 0.9005
298.15 K	–	1.94	1.48	1.14	0.902	0.719	0.613	0.529	0.46	0.401
303.15 K	1.695	–	–	–	–	–	–	–	–	–

COCCOCCOCCOCCOC + CCCCO
viscosity [mPa·s], 101 kPa
Settings	298.15 K	303.15 K	308.15 K
x2 = 0.1013	–	–	2.525
x2 = 0.7991	2.165	1.945	–

Clc1cccc2ccccc12 + CCCCO
viscosity [mPa·s], 101.33 kPa
Settings	x1 = 0.1002	x1 = 0.1997	x1 = 0.2969	x1 = 0.4016	x1 = 0.5004	x1 = 0.599	x1 = 0.6949	x1 = 0.8006	x1 = 0.8969
298.15 K	2.486	2.447	2.383	2.376	2.379	2.43	2.491	2.591	2.697
303.15 K	2.176	2.149	2.11	2.102	2.109	2.153	2.207	2.301	2.414
308.15 K	1.927	1.894	1.865	1.854	1.864	1.914	1.977	2.059	2.173

Clc1ccccc1 + CCCCOC(C)=O
viscosity [mPa·s], 101 kPa
Settings	298.15 K	308.15 K
x2 = 0.0484	0.744	0.669
x2 = 0.1504	0.723	0.651
x2 = 0.2515	0.706	0.636
x2 = 0.349	0.692	0.624
x2 = 0.4447	0.682	0.614
x2 = 0.4933	0.678	0.61
x2 = 0.5503	0.674	0.605
x2 = 0.6502	0.669	0.599
x2 = 0.7514	0.667	0.595
x2 = 0.8498	0.668	0.593
x2 = 0.9417	0.671	0.593

N#CCCCCC#N + CCCCOC(C)=O
303.15 K, 101.33 kPa
Settings	viscosity [mPa·s]
x1 = 0.0984	0.7145
x1 = 0.3003	1.052
x1 = 0.3857	1.281
x1 = 0.4963	1.663
x1 = 0.5929	2.082
x1 = 0.6974	2.631
x1 = 0.8455	3.61

COC(C)(C)C + CCCO
Settings	viscosity [mPa·s]
293.15 K, 101 kPa, x1 = 0.0599	1.835
298.15 K, 101 kPa, x1 = 0.0403	1.735
298.15 K, 101 kPa, x1 = 0.1495	1.275
298.15 K, 101.33 kPa, x1 = 0.0111	1.902
298.15 K, 101.33 kPa, x1 = 0.0293	1.804
298.15 K, 101.33 kPa, x1 = 0.0591	1.651
298.15 K, 101.33 kPa, x1 = 0.1133	1.416
298.15 K, 101.33 kPa, x1 = 0.1374	1.327
298.15 K, 101.33 kPa, x1 = 0.2501	0.998
298.15 K, 101.33 kPa, x1 = 0.3008	0.889
298.15 K, 101.33 kPa, x1 = 0.324	0.85
298.15 K, 101.33 kPa, x1 = 0.3581	0.792
298.15 K, 101.33 kPa, x1 = 0.3641	0.779
298.15 K, 101.33 kPa, x1 = 0.4004	0.729
298.15 K, 101.33 kPa, x1 = 0.4451	0.671
298.15 K, 101.33 kPa, x1 = 0.488	0.624
298.15 K, 101.33 kPa, x1 = 0.5535	0.562
298.15 K, 101.33 kPa, x1 = 0.6157	0.512
298.15 K, 101.33 kPa, x1 = 0.677	0.471
298.15 K, 101.33 kPa, x1 = 0.7585	0.427
298.15 K, 101.33 kPa, x1 = 0.8246	0.397
298.15 K, 101.33 kPa, x1 = 0.8813	0.378
298.15 K, 101.33 kPa, x1 = 0.9491	0.356
298.15 K, 101.33 kPa, x2 = 0.014	0.344
